In test [1] the test system is p21 induction in HCT 116 cells. Description: p21 induction in cells (In-Cell Western, p21/GAPDH ratio). It is filed as cell-based. The note with it: Homo sapiens, 24 h compound incubation, read-out: p21_EC50. The method in brief: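 EC50 values come from nonlinear fits of percent activation, defined by the 800/700 nm p21-to-GAPDH ratio scaled between DMSO (low) and internal WRN inhibitor (high) controls. In-Cell Western read after 24 h compound exposure of HCT 116 cells at 37° C. Duplicate 11-point series, 2-fold steps, usually starting at 10 μM.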

Test [2] concerns the target human Werner helicase (WRN, amino acids 517-1235 with L1074F point mutation) (Homo sapiens (Human), UniProt Q14191, L1074F). Nature of the test: WRN (BV08) ADP-Glo assay. The test is classed as biochemical. The conditions noted are these: human WRN (aa 517-1235, L1074F), read-out: ADP-Glo_hWRN_IC50. An outline of the steps:
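ADP-Glo luminescence read after 60 min, 25 °C reaction of 0.15 nM WRN (517-1235, L1074F, Sf9-expressed, tag removed) with 0.1 nM DNA duplex and 5 μM ATP, following 15 min compound preincubation; 20 mM Bicine pH 7.5, 1% DMSO. IC50 from 3- or 4-parameter fit of % inhibition.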
A general note: In ADP-Glo the light output rises with the ADP produced.

Bounds are passed on as bounds.

Chain of human Werner helicase (WRN, amino acids 517-1235 with L1074F point mutation) (Q14191 other isoform, or with tags, fused parts or gaps L1074F (already in the parent)): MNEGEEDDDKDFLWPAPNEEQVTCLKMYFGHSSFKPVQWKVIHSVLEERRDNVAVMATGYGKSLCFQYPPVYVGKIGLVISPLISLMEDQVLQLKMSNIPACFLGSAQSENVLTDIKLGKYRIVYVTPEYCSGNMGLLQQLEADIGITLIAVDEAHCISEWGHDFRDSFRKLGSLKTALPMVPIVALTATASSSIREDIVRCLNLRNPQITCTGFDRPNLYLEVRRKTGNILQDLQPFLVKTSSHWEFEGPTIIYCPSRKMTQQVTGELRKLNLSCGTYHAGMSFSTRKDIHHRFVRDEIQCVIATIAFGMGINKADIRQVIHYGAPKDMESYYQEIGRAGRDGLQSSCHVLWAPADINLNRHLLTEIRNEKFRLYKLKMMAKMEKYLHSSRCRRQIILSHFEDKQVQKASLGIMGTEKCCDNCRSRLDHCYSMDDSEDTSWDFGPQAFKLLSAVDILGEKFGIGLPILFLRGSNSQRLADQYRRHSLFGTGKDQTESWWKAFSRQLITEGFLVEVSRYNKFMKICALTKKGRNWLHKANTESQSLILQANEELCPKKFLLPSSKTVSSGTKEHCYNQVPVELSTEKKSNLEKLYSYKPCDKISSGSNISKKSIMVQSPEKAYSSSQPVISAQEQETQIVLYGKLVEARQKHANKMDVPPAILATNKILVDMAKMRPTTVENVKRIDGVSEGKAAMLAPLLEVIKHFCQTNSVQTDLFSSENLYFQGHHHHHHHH

As to `CCc1c(N2CCN(C(=O)c3c(O)ccc(C)c3OC)CC2)c(=O)c2nn(-c3ccnc(OC)c3)nc2n1CC(=O)NC12CC(C3CC3)(C1)C2` [Compound I-110, N-{3-cyclopropylbicyclo[1.1.1]pentan-1-yl}-2-{5-ethyl-6-[4-(6-hydroxy-2-methoxy-3-methylbenzoyl)piperazin-1-yl]-2-(2-methoxypyridin-4-yl)-7-oxo-2H,4H,7H-[1,2,3]triazolo[4,5-b]pyridin-4-yl}acetamide], in test [1], the EC50 was in the range of 500 to 2000 nM. In test [2], the IC50 lay in the range of 5 to 50 nM.

Take `CCc1c(N2CCN(C(=O)c3c(OC)ncc(C)c3O)CC2)c(=O)c2nn(C3=CCOCC3)nc2n1CC(=O)NC12CC(C(C)C)(C1)C2` [Compound I-111, 2-[2-(3,6-dihydro-2H-pyran-4-yl)-5-ethyl-6-[4-(4-hydroxy-2-methoxy-5-methylpyridine-3-carbonyl)piperazin-1-yl]-7-oxo-2H,4H,7H-[1,2,3]triazolo[4,5-b]pyridin-4-yl]-N-[3-(propan-2-yl)bicyclo[1.1.1]pentan-1-yl]acetamide]: the EC50 in test [1] was not above 500 nM. Further, the IC50 in test [2] was 5 to 50 nM.

For the molecule `CCc1c(N2CCN(C(=O)c3ncnc(C)c3O)CC2)c(=O)c2nn(-c3cnn(C4CC4)c3)nc2n1CC(=O)Nc1ccc(C(F)(F)F)cc1Cl` [Compound I-112, N-[2-chloro-4-(trifluoromethyl)phenyl]-2-[2-(1-cyclopropyl-1H-pyrazol-4-yl)-5-ethyl-6-[4-(5-hydroxy-6-methylpyrimidine-4-carbonyl)piperazin-1-yl]-7-oxo-2H,4H,7H-[1,2,3]triazolo[4,5-b]pyridin-4-yl]acetamide], the EC50 in test [1] is not above 500 nM. The IC50 in test [2] lay within 5 to 50 nM.

As for `CCc1c(N2CCN(C(=O)c3ncnc(C)c3O)CC2)c(=O)c2nn(-c3cc(C)n(C)n3)nc2n1CC(=O)Nc1ccc(C(F)(F)F)cc1Cl` [Compound I-113, N-[2-chloro-4-(trifluoromethyl)phenyl]-2-[2-(1,5-dimethyl-1H-pyrazol-3-yl)-5-ethyl-6-[4-(5-hydroxy-6-methylpyrimidine-4-carbonyl)piperazin-1-yl]-7-oxo-2H,4H,7H-[1,2,3]triazolo[4,5-b]pyridin-4-yl]acetamide], the EC50 in test [1] was not above 500 nM. The IC50 in test [2] lay in the range of 5 to 50 nM.

For the molecule `CCc1c(N2CCN(C(=O)c3c(OC)ncc(C)c3O)CC2)c(=O)c2nn(-c3ccnc(OC)c3)nc2n1CC(=O)NC12CC(C(C)C)(C1)C2` [Compound I-114, 2-{5-ethyl-6-[4-(4-hydroxy-2-methoxy-5-methylpyridine-3-carbonyl)piperazin-1-yl]-2-(2-methoxypyridin-4-yl)-7-oxo-2H,4H,7H-[1,2,3]triazolo[4,5-b]pyridin-4-yl}-N-[3-(propan-2-yl)bicyclo[1.1.1]pentan-1-yl]acetamide], in test [1], the EC50 is not above 500 nM. Moreover, the IC50 in test [2] was in the range of 5 to 50 nM.

For `CCc1c(N2CCN(C(=O)c3cccc4ncoc34)[C@H]3CC[C@@H]32)c(=O)c2nn(C3=CCOCC3)nc2n1CC(=O)Nc1ccc(C(F)(F)F)cc1Cl` [Compound I-115, 2-{6-[(1S,6S)-5-(1,3-benzoxazole-7-carbonyl)-2,5-diazabicyclo[4.2.0]octan-2-yl]-2-(3,6-dihydro-2H-pyran-4-yl)-5-ethyl-7-oxo-2H,4H,7H-[1,2,3]triazolo[4,5-b]pyridin-4-yl}-N-[2-chloro-4-(trifluoromethyl)phenyl]acetamide], in test [1], the EC50 was not above 500 nM. The IC50 in test [2] lay within 5 to 50 nM.

As to `CCc1c(N2CCN(C(=O)c3c(OC)ncc(C)c3O)[C@H]3CC[C@@H]32)c(=O)c2nn(-c3ccnc(OC)c3)nc2n1CC(=O)NC12CC(C(C)C)(C1)C2` [Compound I-116, 2-{5-ethyl-6-[(1S,6S)-5-(4-hydroxy-2-methoxy-5-methylpyridine-3-carbonyl)-2,5-diazabicyclo[4.2.0]octan-2-yl]-2-(2-methoxypyridin-4-yl)-7-oxo-2H,4H,7H-[1,2,3]triazolo[4,5-b]pyridin-4-yl}-N-[3-(propan-2-yl)bicyclo[1.1.1]pentan-1-yl]acetamide], the EC50 in test [1] was not above 500 nM. In test [2], the IC50 was in the range of 5 to 50 nM.

On to `CCc1c(N2CCN(C(=O)c3c(OC)ncc(C)c3O)[C@H]3CC[C@@H]32)c(=O)c2nn(-c3ccnc(OC)c3)nc2n1CC(=O)NC12CC(C(F)(F)F)(C1)C2` [Compound I-117, 2-{5-ethyl-6-[(1S,6S)-5-(4-hydroxy-2-methoxy-5-methylpyridine-3-carbonyl)-2,5-diazabicyclo[4.2.0]octan-2-yl]-2-(2-methoxypyridin-4-yl)-7-oxo-2H,4H,7H-[1,2,3]triazolo[4,5-b]pyridin-4-yl}-N-[3-(trifluoromethyl)bicyclo[1.1.1]pentan-1-yl]acetamide], for which the EC50 in test [1] was not above 500 nM. The IC50 in test [2] fell in the range of 5 to 50 nM.

Regarding `CCc1c(N2CCN(C(=O)c3ncnc(C)c3O)CC2)c(=O)c2nn(-c3ccnc(OC)c3)nc2n1CC(=O)NC1CC2(CCC2)C1` [Compound I-118, 2-{5-ethyl-6-[4-(5-hydroxy-6-methylpyrimidine-4-carbonyl)piperazin-1-yl]-2-(2-methoxypyridin-4-yl)-7-oxo-2H,4H,7H-[1,2,3]triazolo[4,5-b]pyridin-4-yl}-N-{spiro[3.3]heptan-2-yl}acetamide], in test [1], the EC50 was in the range of 500 to 2000 nM. Besides, in test [2], the IC50 lay in the range of 5 to 50 nM.

Turning to `CCc1c(N2CCN(C(=O)c3cccc4ccoc34)[C@H]3CC[C@@H]32)c(=O)c2nn(-c3ccnc(OC)c3)nc2n1CC(=O)Nc1ccc(C(F)(F)F)cc1Cl` [Compound I-119, 2-{6-[(1S,6S)-5-(1-benzofuran-7-carbonyl)-2,5-diazabicyclo[4.2.0]octan-2-yl]-5-ethyl-2-(2-methoxypyridin-4-yl)-7-oxo-2H,4H,7H-[1,2,3]triazolo[4,5-b]pyridin-4-yl}-N-[2-chloro-4-(trifluoromethyl)phenyl]acetamide], the EC50 in test [1] is more than 5000 nM. The IC50 in test [2] is 5 to 50 nM.

On to `CCc1c(N2CCN(C(=O)c3cccc4c3OCC4)[C@H]3CC[C@@H]32)c(=O)c2nn(-c3ccnc(OC)c3)nc2n1CC(=O)Nc1ccc(C(F)(F)F)cc1Cl` [Compound I-120, N-[2-chloro-4-(trifluoromethyl)phenyl]-2-{6-[(1S,6S)-5-(2,3-dihydro-1-benzofuran-7-carbonyl)-2,5-diazabicyclo[4.2.0]octan-2-yl]-5-ethyl-2-(2-methoxypyridin-4-yl)-7-oxo-2H,4H,7H-[1,2,3]triazolo[4,5-b]pyridin-4-yl}acetamide], for which the EC50 in test [1] lay within 500 to 2000 nM. The IC50 in test [2] lay in the range of 5 to 50 nM.

As to `CCc1c(N2CCN(C(=O)c3c(OC)ncc(C)c3O)CC2)c(=O)c2nn(-c3ccnc(OC)c3)nc2n1CC(=O)NC12CC(CC(F)F)(C1)C2` [Compound I-121, N-[3-(2,2-difluoroethyl)bicyclo[1.1.1]pentan-1-yl]-2-{5-ethyl-6-[4-(4-hydroxy-2-methoxy-5-methylpyridine-3-carbonyl)piperazin-1-yl]-2-(2-methoxypyridin-4-yl)-7-oxo-2H,4H,7H-[1,2,3]triazolo[4,5-b]pyridin-4-yl}acetamide], the EC50 in test [1] was in the range of 500 to 2000 nM. In addition, in test [2], the IC50 was 5 to 50 nM.

In the case of `CCc1c(N2CCN(C(=O)c3c(OC)ncc(C)c3O)CC2)c(=O)c2nn(-c3ccnc(OC)c3)nc2n1CC(=O)NC12CC(C(C)(F)F)(C1)C2` [Compound I-122, N-[3-(1,1-difluoroethyl)bicyclo[1.1.1]pentan-1-yl]-2-{5-ethyl-6-[4-(4-hydroxy-2-methoxy-5-methylpyridine-3-carbonyl)piperazin-1-yl]-2-(2-methoxypyridin-4-yl)-7-oxo-2H,4H,7H-[1,2,3]triazolo[4,5-b]pyridin-4-yl}acetamide], in test [1], the EC50 was 500 to 2000 nM. Further, in test [2], the IC50 lay within 5 to 50 nM.

Consider `CCc1c(N2CCN(C(=O)c3c(OC)ncc(C)c3O)CC2)c(=O)c2nn(-c3ccnc(OC)c3)nc2n1CC(=O)NC12CC(C3CCOC3)(C1)C2` (centres unmarked) [Compound I-123, 2-{5-ethyl-6-[4-(4-hydroxy-2-methoxy-5-methylpyridine-3-carbonyl)piperazin-1-yl]-2-(2-methoxypyridin-4-yl)-7-oxo-2H,4H,7H-[1,2,3]triazolo[4,5-b]pyridin-4-yl}-N-[3-(oxolan-3-yl)bicyclo[1.1.1]pentan-1-yl]acetamide], for which the EC50 in test [1] was more than 5000 nM. In addition, the IC50 in test [2] lay in the range of 50 to 100 nM.

On to `CCc1c(N2CCN(C(=O)c3c(OC)ncc(C)c3O)CC2)c(=O)c2nn(-c3ccnc(OC)c3)nc2n1CC(=O)NC12CC(N3CCCC3)(C1)C2` [Compound I-124, 2-{5-ethyl-6-[4-(4-hydroxy-2-methoxy-5-methylpyridine-3-carbonyl)piperazin-1-yl]-2-(2-methoxypyridin-4-yl)-7-oxo-2H,4H,7H-[1,2,3]triazolo[4,5-b]pyridin-4-yl}-N-[3-(pyrrolidin-1-yl)bicyclo[1.1.1]pentan-1-yl]acetamide], for which the EC50 in test [1] is more than 5000 nM. In test [2], the IC50 is more than 500 nM.

With `CCc1c(N2CCN(C(=O)c3c(OC)ncc(C)c3O)CC2)c(=O)c2nn(-c3ccnc(OC)c3)nc2n1CC(=O)NC1CC2(CCC2)C1` [Compound I-125, 2-{5-ethyl-6-[4-(4-hydroxy-2-methoxy-5-methylpyridine-3-carbonyl)piperazin-1-yl]-2-(2-methoxypyridin-4-yl)-7-oxo-2H,4H,7H-[1,2,3]triazolo[4,5-b]pyridin-4-yl}-N-{spiro[3.3]heptan-2-yl}acetamide], the EC50 in test [1] lay within 500 to 2000 nM. Also, in test [2], the IC50 was in the range of 5 to 50 nM.

For the origin of these results see patent US20250129069A1, “TRIAZOLO WRN INHIBITORS” (Nimbus Wadjet, Inc., priority 2023, published 2025).
